Laboratory results taken from article PMC7486443, “Generation of Phenothiazine with Potent Anti-TLK1 Activity for Prostate Cancer Therapy” (iScience, 2020).

Legend:
p38-beta = target: T1, p38-beta (Homo sapiens, UniProt Q15759); experiment: biochemical; set-up: DiscoverX KINOMEscan scanMAX competition binding panel, single concentration, percent of control; remaining binding: dose or concentration left out as unconfirmed; details: KINOMEscan binding, percent of control; read-out: Table S4_SCANMAX REPORT - related to Fig. 1 / Percent Control
T1 construct: gene MAPK11
T1 sequence (Q15759 whole entry): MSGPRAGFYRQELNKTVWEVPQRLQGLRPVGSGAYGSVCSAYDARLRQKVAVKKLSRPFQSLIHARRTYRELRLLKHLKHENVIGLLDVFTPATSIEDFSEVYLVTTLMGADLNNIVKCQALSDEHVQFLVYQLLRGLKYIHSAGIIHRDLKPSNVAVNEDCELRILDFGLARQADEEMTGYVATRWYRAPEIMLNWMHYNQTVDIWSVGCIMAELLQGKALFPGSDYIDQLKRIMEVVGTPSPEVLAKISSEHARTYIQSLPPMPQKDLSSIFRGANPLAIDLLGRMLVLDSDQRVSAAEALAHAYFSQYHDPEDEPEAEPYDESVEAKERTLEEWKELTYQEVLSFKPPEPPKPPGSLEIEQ

[1] = target: T2, JAK1(JH2domain-pseudokinase) (Homo sapiens, UniProt P23458); experiment: biochemical; set-up: DiscoverX KINOMEscan scanMAX competition binding panel, single concentration, percent of control; remaining binding: dose or concentration left out as unconfirmed; details: KINOMEscan binding, percent of control; read-out: Table S4_SCANMAX REPORT - related to Fig. 1 / Percent Control
T2 construct: JH2domain-pseudokinase

NLK = NLK (Homo sapiens, UniProt Q9UBE8); experiment: biochemical; set-up: DiscoverX KINOMEscan scanMAX competition binding panel, single concentration, percent of control; remaining binding: dose or concentration left out as unconfirmed; details: KINOMEscan binding, percent of control; read-out: Table S4_SCANMAX REPORT - related to Fig. 1 / Percent Control
PRKCE = PRKCE (Homo sapiens, UniProt Q02156); experiment: biochemical; set-up: DiscoverX KINOMEscan scanMAX competition binding panel, single concentration, percent of control; remaining binding: dose or concentration left out as unconfirmed; details: KINOMEscan binding, percent of control; read-out: Table S4_SCANMAX REPORT - related to Fig. 1 / Percent Control
Sequence of PRKCE (Q02156 whole entry): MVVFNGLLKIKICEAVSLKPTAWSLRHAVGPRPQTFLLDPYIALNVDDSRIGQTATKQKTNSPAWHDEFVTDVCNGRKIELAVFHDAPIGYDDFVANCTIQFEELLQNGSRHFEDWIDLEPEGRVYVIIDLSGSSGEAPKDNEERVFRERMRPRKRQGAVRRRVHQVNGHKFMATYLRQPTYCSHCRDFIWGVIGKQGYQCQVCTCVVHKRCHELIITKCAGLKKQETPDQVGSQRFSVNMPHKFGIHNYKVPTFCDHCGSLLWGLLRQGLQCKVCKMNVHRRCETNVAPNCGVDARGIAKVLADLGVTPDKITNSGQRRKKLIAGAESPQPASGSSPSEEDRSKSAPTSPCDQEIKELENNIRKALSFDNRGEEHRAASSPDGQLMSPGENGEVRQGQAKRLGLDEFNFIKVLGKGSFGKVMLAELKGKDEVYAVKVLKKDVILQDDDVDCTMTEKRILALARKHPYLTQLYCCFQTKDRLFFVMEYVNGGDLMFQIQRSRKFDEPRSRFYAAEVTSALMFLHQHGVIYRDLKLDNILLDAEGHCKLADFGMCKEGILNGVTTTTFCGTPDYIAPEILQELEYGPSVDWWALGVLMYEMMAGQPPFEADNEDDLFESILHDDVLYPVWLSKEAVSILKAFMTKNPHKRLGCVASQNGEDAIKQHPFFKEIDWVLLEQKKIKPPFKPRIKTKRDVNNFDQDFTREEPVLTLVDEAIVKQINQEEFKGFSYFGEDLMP

FAK = target: T3, FAK (Homo sapiens, UniProt Q05397); experiment: biochemical; set-up: DiscoverX KINOMEscan scanMAX competition binding panel, single concentration, percent of control; remaining binding: dose or concentration left out as unconfirmed; details: KINOMEscan binding, percent of control; read-out: Table S4_SCANMAX REPORT - related to Fig. 1 / Percent Control
T3 construct: gene PTK2
T3 sequence (Q05397 whole entry): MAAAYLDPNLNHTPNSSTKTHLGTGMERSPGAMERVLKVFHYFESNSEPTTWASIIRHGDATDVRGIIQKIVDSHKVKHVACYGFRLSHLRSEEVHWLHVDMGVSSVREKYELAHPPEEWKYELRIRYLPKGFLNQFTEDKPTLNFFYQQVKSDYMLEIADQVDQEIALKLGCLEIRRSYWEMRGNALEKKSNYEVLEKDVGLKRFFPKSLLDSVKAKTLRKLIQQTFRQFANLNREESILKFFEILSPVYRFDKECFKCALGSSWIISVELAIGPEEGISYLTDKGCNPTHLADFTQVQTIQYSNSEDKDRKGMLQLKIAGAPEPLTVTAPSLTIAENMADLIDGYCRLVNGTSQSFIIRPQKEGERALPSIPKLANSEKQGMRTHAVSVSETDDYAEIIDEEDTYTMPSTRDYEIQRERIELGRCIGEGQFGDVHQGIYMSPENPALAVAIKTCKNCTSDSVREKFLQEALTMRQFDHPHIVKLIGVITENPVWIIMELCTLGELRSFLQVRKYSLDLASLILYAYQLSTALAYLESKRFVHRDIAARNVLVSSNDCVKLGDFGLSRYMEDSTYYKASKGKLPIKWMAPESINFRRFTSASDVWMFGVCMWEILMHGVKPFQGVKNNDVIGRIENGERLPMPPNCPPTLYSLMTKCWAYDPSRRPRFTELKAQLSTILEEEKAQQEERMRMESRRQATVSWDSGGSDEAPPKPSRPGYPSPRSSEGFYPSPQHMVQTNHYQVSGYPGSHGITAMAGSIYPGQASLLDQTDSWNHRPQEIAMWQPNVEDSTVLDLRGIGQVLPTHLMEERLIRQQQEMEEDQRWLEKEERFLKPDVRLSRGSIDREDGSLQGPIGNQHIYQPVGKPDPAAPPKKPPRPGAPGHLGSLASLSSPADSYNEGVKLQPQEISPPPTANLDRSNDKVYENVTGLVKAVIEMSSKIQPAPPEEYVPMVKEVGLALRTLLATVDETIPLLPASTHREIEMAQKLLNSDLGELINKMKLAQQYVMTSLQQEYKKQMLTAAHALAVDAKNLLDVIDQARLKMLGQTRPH

TRKB = target: T4, TRKB (Homo sapiens, UniProt Q16620); experiment: biochemical; set-up: DiscoverX KINOMEscan scanMAX competition binding panel, single concentration, percent of control; remaining binding: dose or concentration left out as unconfirmed; details: KINOMEscan binding, percent of control; read-out: Table S4_SCANMAX REPORT - related to Fig. 1 / Percent Control
T4 construct: gene NTRK2
T4 sequence (Q16620 whole entry): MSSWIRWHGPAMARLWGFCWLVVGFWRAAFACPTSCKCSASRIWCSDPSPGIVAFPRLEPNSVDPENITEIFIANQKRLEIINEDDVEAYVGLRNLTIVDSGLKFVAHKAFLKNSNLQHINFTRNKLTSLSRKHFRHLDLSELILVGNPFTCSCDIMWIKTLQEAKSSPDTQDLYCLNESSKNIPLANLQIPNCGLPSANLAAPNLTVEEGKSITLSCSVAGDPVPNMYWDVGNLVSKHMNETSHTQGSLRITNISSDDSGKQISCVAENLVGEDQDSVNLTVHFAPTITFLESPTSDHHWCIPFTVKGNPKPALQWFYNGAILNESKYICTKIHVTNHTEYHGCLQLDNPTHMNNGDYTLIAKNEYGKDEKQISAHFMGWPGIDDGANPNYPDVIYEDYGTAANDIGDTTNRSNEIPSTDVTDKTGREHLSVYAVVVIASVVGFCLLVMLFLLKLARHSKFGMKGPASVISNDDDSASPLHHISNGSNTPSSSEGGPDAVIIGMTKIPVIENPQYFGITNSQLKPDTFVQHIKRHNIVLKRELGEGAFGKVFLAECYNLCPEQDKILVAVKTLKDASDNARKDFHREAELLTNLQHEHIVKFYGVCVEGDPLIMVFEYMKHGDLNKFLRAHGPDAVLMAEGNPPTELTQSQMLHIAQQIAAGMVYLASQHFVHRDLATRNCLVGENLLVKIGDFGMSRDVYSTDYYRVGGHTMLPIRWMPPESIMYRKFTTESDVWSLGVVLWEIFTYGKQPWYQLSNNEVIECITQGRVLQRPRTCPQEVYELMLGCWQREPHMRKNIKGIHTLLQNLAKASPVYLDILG

TNIK = TNIK (Homo sapiens, UniProt Q9UKE5); experiment: biochemical; set-up: DiscoverX KINOMEscan scanMAX competition binding panel, single concentration, percent of control; remaining binding: dose or concentration left out as unconfirmed; details: KINOMEscan binding, percent of control; read-out: Table S4_SCANMAX REPORT - related to Fig. 1 / Percent Control
Sequence of TNIK (Q9UKE5 whole entry): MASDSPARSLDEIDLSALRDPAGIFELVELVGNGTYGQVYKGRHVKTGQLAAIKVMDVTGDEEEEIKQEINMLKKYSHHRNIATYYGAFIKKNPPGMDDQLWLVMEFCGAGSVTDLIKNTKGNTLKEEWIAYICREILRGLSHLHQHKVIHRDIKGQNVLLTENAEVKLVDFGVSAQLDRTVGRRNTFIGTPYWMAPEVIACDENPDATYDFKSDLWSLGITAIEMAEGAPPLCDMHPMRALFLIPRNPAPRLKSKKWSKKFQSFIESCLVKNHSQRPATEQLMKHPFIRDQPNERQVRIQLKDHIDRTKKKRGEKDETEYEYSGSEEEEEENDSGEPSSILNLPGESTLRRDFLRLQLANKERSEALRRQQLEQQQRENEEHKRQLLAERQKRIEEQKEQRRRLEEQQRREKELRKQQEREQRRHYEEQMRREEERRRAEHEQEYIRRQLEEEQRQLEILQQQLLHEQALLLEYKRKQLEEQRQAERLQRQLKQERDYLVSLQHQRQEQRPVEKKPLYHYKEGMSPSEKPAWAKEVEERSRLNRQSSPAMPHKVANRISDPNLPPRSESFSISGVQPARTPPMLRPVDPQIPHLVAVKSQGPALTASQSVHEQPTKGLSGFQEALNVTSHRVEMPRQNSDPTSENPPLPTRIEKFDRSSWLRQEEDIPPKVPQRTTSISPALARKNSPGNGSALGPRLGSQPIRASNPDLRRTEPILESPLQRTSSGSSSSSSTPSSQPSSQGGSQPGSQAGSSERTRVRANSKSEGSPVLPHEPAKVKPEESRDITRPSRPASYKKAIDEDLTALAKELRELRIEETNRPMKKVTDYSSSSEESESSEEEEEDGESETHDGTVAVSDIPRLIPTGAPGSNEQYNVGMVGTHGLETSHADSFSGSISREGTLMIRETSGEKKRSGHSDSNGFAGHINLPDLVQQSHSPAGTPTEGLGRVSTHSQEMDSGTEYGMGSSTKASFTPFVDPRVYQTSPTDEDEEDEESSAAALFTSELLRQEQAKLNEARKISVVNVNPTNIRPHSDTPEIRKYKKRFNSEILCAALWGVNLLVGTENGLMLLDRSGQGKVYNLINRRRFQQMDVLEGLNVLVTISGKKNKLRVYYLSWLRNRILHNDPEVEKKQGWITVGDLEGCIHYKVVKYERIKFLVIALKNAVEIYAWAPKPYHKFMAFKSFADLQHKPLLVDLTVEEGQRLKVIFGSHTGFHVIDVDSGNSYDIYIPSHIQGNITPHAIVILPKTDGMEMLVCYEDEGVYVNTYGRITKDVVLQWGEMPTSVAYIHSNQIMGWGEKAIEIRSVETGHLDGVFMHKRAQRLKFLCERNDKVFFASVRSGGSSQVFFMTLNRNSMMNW

PRKCH = PRKCH (Homo sapiens, UniProt P24723); experiment: biochemical; set-up: DiscoverX KINOMEscan scanMAX competition binding panel, single concentration, percent of control; remaining binding: dose or concentration left out as unconfirmed; details: KINOMEscan binding, percent of control; read-out: Table S4_SCANMAX REPORT - related to Fig. 1 / Percent Control
STK33 = STK33 (Homo sapiens, UniProt Q9BYT3); experiment: biochemical; set-up: DiscoverX KINOMEscan scanMAX competition binding panel, single concentration, percent of control; dose or concentration left out as unconfirmed; details: KINOMEscan binding, percent of control; read-out: Table S4_SCANMAX REPORT - related to Fig. 1 / Percent Control
Sequence of STK33 (Q9BYT3 whole entry): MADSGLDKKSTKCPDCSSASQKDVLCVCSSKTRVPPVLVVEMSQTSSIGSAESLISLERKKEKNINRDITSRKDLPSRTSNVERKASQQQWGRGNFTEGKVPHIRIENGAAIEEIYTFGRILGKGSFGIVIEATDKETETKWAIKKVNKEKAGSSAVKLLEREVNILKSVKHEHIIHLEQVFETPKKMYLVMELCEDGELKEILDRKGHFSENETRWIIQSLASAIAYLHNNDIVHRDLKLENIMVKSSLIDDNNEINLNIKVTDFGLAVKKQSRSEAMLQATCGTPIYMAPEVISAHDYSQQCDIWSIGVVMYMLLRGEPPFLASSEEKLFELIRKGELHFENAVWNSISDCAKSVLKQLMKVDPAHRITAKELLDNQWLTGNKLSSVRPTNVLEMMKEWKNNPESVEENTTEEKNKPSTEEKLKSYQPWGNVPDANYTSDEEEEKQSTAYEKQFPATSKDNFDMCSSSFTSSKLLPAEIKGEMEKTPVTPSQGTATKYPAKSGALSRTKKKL
Text: (§1) Certain PTH are potent inhibitors of TLK1 ([Ronald et al., 2013]), and by inference TLK2, as these proteins must homo- and hetero-dimerize for full activation ([Mortuza et al., 2018]), in addition to being highly similar in sequence and structure, and thus similarly targetable. […] Two noteworthy observations are that PTHs are structurally different from many known ATP competitive inhibitors, and that J54 was carefully designed based on considerations reported previously for the THD—the Kinomescan has confirmed that J54 is specific to TLKs. We should point out that although PTH were the first reported inhibitors of TLKs ([Ronald et al., 2013]), other inhibitors particularly of TLK2 have since been reported ([Kim et al., 2016]), some based on structure docking ([Mortuza et al., 2018]), although neither their potency and effects in vivo nor their potential off-target effects have not been reported as they were selected from libraries of kinase inhibitors. Supplementary file mmc2.xlsx: Table S4. SCANMAX Table, Related to Figure 1 Kinomescan of J54 inhibitory activity on human kinases.

DYRK1B = DYRK1B (Homo sapiens, UniProt Q9Y463); experiment: biochemical; set-up: DiscoverX KINOMEscan scanMAX competition binding panel, single concentration, percent of control; dose or concentration left out as unconfirmed; details: KINOMEscan binding, percent of control; read-out: Table S4_SCANMAX REPORT - related to Fig. 1 / Percent Control
Text: as §1

LTK = LTK (Homo sapiens, UniProt P29376); experiment: biochemical; set-up: DiscoverX KINOMEscan scanMAX competition binding panel, single concentration, percent of control; dose or concentration left out as unconfirmed; details: KINOMEscan binding, percent of control; read-out: Table S4_SCANMAX REPORT - related to Fig. 1 / Percent Control
Text: as §1

TTK = TTK (Homo sapiens, UniProt P33981); experiment: Kinomescan SCANMAX panel at […]; type: binding

c1ccc2c(c1)Sc1ccccc1N2CCN1CCOCC1 [J54]
remaining binding (p38-beta): 100%
remaining binding [1]: 99%
remaining binding (NLK): 91%
remaining binding (PRKCE): 100%
remaining binding (FAK): 92%
remaining binding (TRKB): 89%
remaining binding (TNIK): 98%
remaining binding (PRKCH): 94%
remaining binding (STK33): 100%
remaining binding (DYRK1B): 54%
remaining binding (LTK): 100%
Kinomescan SCANMAX panel at 15 μM (TTK): little inhibition of all other kinases with the exception of TTK
